The structures appear in SMILES notation. Where a name gives a salt, the structure may show the parent alone.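 Values below derive from 48-hour exposures of cells grown in 96-well plates, with endpoints linearly interpolated between the two concentrations bracketing the appropriate inhibition level. The concentration for 50% growth inhibition is given as GI50.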 Active and inactive are the calls of the source. Rule as the data show it: active = GI50 up to about 1.1 µM and inactive = higher.

Some test systems named below: SN12C; SF-539; MDA-MB-435; HT-29; OVCAR-3; OVCAR-5; SW-620; SF-268; U-251; TK-10; UO-31; CCRF-CEM; MCF7; Hs-578T; ACHN; COLO 205; HCC 2998; RXF 393; SNB-75; M14.
Common to all, as to assay: inhibition of tumour cell growth, NCI panel, 48 h

Take `CN(C)CCCNC(=O)c1c(O)c2ccccc2n(C)c1=O`: the GI50 in the assay with SN12C is 67.1 µM (inactive); in the assay with SF-539, 78.3 µM (inactive); with MDA-MB-435 it was 61.8 µM (inactive); in the assay on HT-29, 55.6 µM (inactive); in the assay on OVCAR-3, > 100 µM (inactive); with OVCAR-5 it was 63 µM (inactive). The GI50 is 54 µM (inactive) with SW-620; 49.8 µM (inactive) in the assay on SF-268; 39.5 µM (inactive) in the assay with U-251; 67.3 µM (inactive) in the assay with TK-10; 9.27 µM (inactive) in the assay with UO-31; 43.1 µM (inactive) in the assay with CCRF-CEM. Further, the GI50 in the assay on MCF7 is 43.9 µM (inactive); in the assay on Hs-578T, > 100 µM (inactive); in the assay on ACHN it was 43.8 µM (inactive); in the assay on COLO 205, 39.5 µM (inactive); in the assay on HCC 2998, 82.2 µM (inactive); in the assay on RXF 393 it was 35.5 µM (inactive). Besides, in the assay with SNB-75, the GI50 is 63.7 µM (inactive).
In the case of `CC1CC(=O)N2CCCNC2=C1C#N` (stereo not drawn), the GI50 with SN12C, with SF-539, with MDA-MB-435, in the assay on HT-29, in the assay with OVCAR-3 and in the assay on SW-620 was > 100 µM (inactive) throughout. Also, the GI50 in the assay with SF-268, in the assay on U-251, in the assay with TK-10, in the assay on UO-31, in the assay on CCRF-CEM and with MCF7 was > 100 µM (inactive) each time. Besides, the GI50 in the assay with M14, in the assay on Hs-578T, in the assay on COLO 205, in the assay on HCC 2998, in the assay on RXF 393 and with SNB-75 was > 100 µM (inactive) in each case.
As for `Clc1cccc(N/N=N/c2ccc(-c3nc4ccccc4s3)cc2)c1`, the GI50 is 21.9 µM (inactive) in the assay with SN12C; 82.8 µM (inactive) in the assay with SF-539; 30.6 µM (inactive) in the assay on MDA-MB-435; > 100 µM (inactive) in the assay on HT-29; 51.5 µM (inactive) in the assay with OVCAR-3; > 100 µM (inactive) in the assay with OVCAR-5. For the same compound, the GI50 in the assay on SW-620 is 33.7 µM (inactive); in the assay with U-251, 36.9 µM (inactive); with TK-10, 94.6 µM (inactive); in the assay with UO-31 it was > 100 µM (inactive); in the assay with CCRF-CEM it was 21 µM (inactive); with MCF7 it was 47.5 µM (inactive). In addition, the GI50 in the assay with M14 is 34.8 µM (inactive); in the assay with Hs-578T, > 100 µM (inactive); in the assay on ACHN it was > 100 µM (inactive); in the assay with COLO 205, > 100 µM (inactive); in the assay with HCC 2998 it was 64.4 µM (inactive); with RXF 393 it was 27.2 µM (inactive). Besides, the GI50 in the assay on SNB-75 is 30.3 µM (inactive).
As to `COc1ccc(/C=C2/CSCC3=C2N=C(S)NC3c2ccc(OC)c(OC)c2OC)c(OC)c1OC` (stereo not drawn), the GI50 is 17 µM (inactive) in the assay on SN12C; 16.8 µM (inactive) with SF-539; 7.82 µM (inactive) with MDA-MB-435; 12.6 µM (inactive) in the assay with HT-29; 43.7 µM (inactive) in the assay on OVCAR-3; 25.2 µM (inactive) in the assay with OVCAR-5. For the same compound, the GI50 in the assay with SW-620 was 27.7 µM (inactive); in the assay on SF-268, 16.8 µM (inactive); in the assay on U-251, 7.48 µM (inactive); in the assay on TK-10, 26.2 µM (inactive); in the assay with CCRF-CEM, 3.4 µM (inactive); in the assay on MCF7 it was 0.0798 µM (active). Further, the GI50 in the assay with M14 was 12.6 µM (inactive); with Hs-578T, > 100 µM (inactive); in the assay on ACHN, 19 µM (inactive); in the assay on COLO 205, 19.9 µM (inactive); with HCC 2998 it was 31.3 µM (inactive); with RXF 393, 14.4 µM (inactive). In the assay on SNB-75, the GI50 was 0.209 µM (active).
Regarding `O=C(CSCC(=O)N/N=C/c1ccncc1)N/N=C/c1ccncc1`, the GI50 in the assay with SN12C, with SF-539, with MDA-MB-435, in the assay with HT-29, in the assay with OVCAR-3 and in the assay with OVCAR-5 was > 100 µM (inactive) in each case. The GI50 with SW-620, with SF-268, in the assay with U-251, in the assay with TK-10, in the assay on UO-31 and in the assay with CCRF-CEM was > 100 µM (inactive) throughout. For the same compound, the GI50 in the assay on MCF7, with M14, with Hs-578T, in the assay on ACHN, in the assay on HCC 2998 and with RXF 393 was > 100 µM (inactive) each time. The GI50 in the assay on SNB-75 is > 100 µM (inactive).
As to `Nc1nc(Cl)cc(NC2(CO)CCC2)n1`, the GI50 with SN12C, in the assay on SF-539, with MDA-MB-435, in the assay with HT-29, in the assay with OVCAR-3 and in the assay with OVCAR-5 was > 100 µM (inactive) throughout. Besides, the GI50 in the assay on SW-620, in the assay with SF-268, in the assay with U-251, in the assay on TK-10, in the assay with UO-31 and with CCRF-CEM was > 100 µM (inactive) throughout. Moreover, the GI50 in the assay on MCF7, with Hs-578T, in the assay on ACHN, in the assay on COLO 205, with HCC 2998 and in the assay with RXF 393 was > 100 µM (inactive) throughout. Moreover, in the assay on SNB-75, the GI50 is > 100 µM (inactive).
`CNNCc1ccc(C(=O)NC(C)C)cc1` [PROCARBAZINE HYDROCHLORIDE]: the GI50 with SN12C was > 500 µM (inactive); in the assay with SF-539, > 500 µM (inactive); in the assay with MDA-MB-435 it was > 379 µM (inactive); with HT-29, > 474 µM (inactive); with OVCAR-3, > 472 µM (inactive); with OVCAR-5, > 439 µM (inactive). Also, the GI50 in the assay on SW-620 is > 500 µM (inactive); in the assay with SF-268 it was > 500 µM (inactive); with TK-10, > 500 µM (inactive); in the assay with UO-31, > 500 µM (inactive); with CCRF-CEM, 461 µM (inactive); in the assay on MCF7, > 486 µM (inactive). Also, the GI50 in the assay with M14 is > 500 µM (inactive); in the assay with Hs-578T, > 500 µM (inactive); in the assay on ACHN, > 500 µM (inactive); in the assay on COLO 205 it was > 500 µM (inactive); with HCC 2998, > 398 µM (inactive); with RXF 393, > 423 µM (inactive). In addition, the GI50 with SNB-75 was 435 µM (inactive).
With `N=c1oc2ccc(Cl)cc2cc1C(=O)NC1CCCCC1`, the GI50 in the assay with SN12C is > 100 µM (inactive); in the assay with SF-539, 81.8 µM (inactive); with MDA-MB-435, 49.2 µM (inactive); with HT-29, > 100 µM (inactive); with OVCAR-3, 44.4 µM (inactive); in the assay on OVCAR-5, > 100 µM (inactive). The GI50 in the assay on SW-620 was 96.4 µM (inactive); in the assay on SF-268, > 100 µM (inactive); in the assay on U-251 it was > 100 µM (inactive); in the assay on CCRF-CEM, 33.7 µM (inactive); in the assay with MCF7, 58.6 µM (inactive); in the assay on M14, > 100 µM (inactive). For the same compound, the GI50 with Hs-578T was 30.9 µM (inactive); with ACHN, > 100 µM (inactive); in the assay with COLO 205, 51.6 µM (inactive); with HCC 2998, 32.1 µM (inactive); with RXF 393, > 100 µM (inactive); with SNB-75 it was 84.5 µM (inactive).
With `C[n+]1cn(-c2ccc([N+](=O)[O-])cn2)c2ccccc21`, the GI50 with SF-539, in the assay with MDA-MB-435, in the assay on HT-29, in the assay on OVCAR-3, in the assay on OVCAR-5 and in the assay on SW-620 was > 100 µM (inactive) throughout. The GI50 in the assay with SF-268, in the assay with U-251, in the assay on TK-10, with UO-31, in the assay with CCRF-CEM and in the assay on MCF7 was > 100 µM (inactive) each time. The GI50 in the assay on M14, in the assay with Hs-578T, in the assay with ACHN, with COLO 205, in the assay on HCC 2998 and with RXF 393 was > 100 µM (inactive) throughout. Besides, the GI50 in the assay with SNB-75 was > 100 µM (inactive).
Turning to `O=C(/C=C/c1ccc(Cl)cc1)Oc1ccc(C=C2CCC/C(=C\c3ccc(OC(=O)/C=C/c4ccc(Cl)cc4)cc3)C2=O)cc1`, the GI50 in the assay with SN12C, in the assay on SF-539, in the assay with MDA-MB-435, with HT-29, in the assay on OVCAR-3 and in the assay on OVCAR-5 was > 100 µM (inactive) throughout. The GI50 in the assay with SW-620, with SF-268, with U-251, with TK-10, in the assay on UO-31 and in the assay on MCF7 was > 100 µM (inactive) each time. In addition, the GI50 in the assay with M14, with Hs-578T, in the assay with ACHN, in the assay on COLO 205, in the assay on HCC 2998 and in the assay on RXF 393 was > 100 µM (inactive) each time. The GI50 with SNB-75 is > 79.1 µM (inactive).

Source of the values: ChEMBL document CHEMBL1201862, “PubChem BioAssay data set” (2004).
